Consider one compound from patent US20210188856A1, “CRYSTAL FORM OF HYDROCHLORIDE OF PYRAZOLOHETEROARYL DERIVATIVE AND PREPARATION METHOD” (JIANGSU HENGRUI MEDICINE CO., LTD., priority 2018, published 2021).

A short description of data set [1]: Solubility in PBS 7.4 and FaSSIF solutions. It is filed as physicochemical. Particulars: thermodynamic from solid. From the text:
The amorphous samples of the compound represented by formula (I) and the crystal form I samples of the dihydrochloride salt of the compound represented by formula (I) obtained in the present disclosure were further evaluated for solubility in PBS 7.4 and FaSSIF solutions.

Another data set is described as follows: Log D. In kind it is physicochemical.
For data set [2], the system named is peripheral blood mononuclear cells (PBMC). Description: Stimulation of IFN-α secretion from PBMC. In kind it is cell-based, human. Particulars: 24 hours, lowest concentration giving cytokine level at least 3 times the minimum detection limit. The procedure:
The ability of the compound of the present disclosure to stimulate the secretion of IFN-α from PBMC was determined by the following experimental method:
The compound was diluted with pure DMSO to a maximum concentration of 5 mM, and a total of 9 points were obtained by a 4-fold gradient dilution. 4 μL of the compound was then added to 196 μL of RMPI 1640 medium containing 10% FBS and mixed well. 50 μL of the mixture was taken from each well and added to a new 96-well cell culture plate.
All reagents were equilibrated to room temperature. 60 mL of blood and PBS+2% FBS were added to a 250 mL culture flask, gently pipetted, mixed well and diluted. 15 mL of lymphocyte separation solution Ficoll-Paque PREMIUM and then 30 mL of diluted blood were added to a 50 mL PBMC centrifuge tube SepMate™-50. The mixture was centrifuged at 1200 g for 10 minutes at room temperature. The supernatant was taken and then centrifuged at 300 g for 8 minutes. The cells were re-suspended in the RMPI 1640 medium containing 10% FBS and counted, and the number of PBMCs was adjusted to 3.33×10^6 cells/mL. 150 μL of the cell solution was added to the plate added with the compound, and incubated in an incubator at 37° C., 5.0% CO2 for 24 hours.
The cell culture plate was placed in a centrifuge, and centrifuged at 1200 rpm for 10 minutes at room temperature. […]
The plate was read with PHERAStar in the HTRF mode. […]

The target in data set [3] is T1, CYP3A4 (Homo sapiens, UniProt P08684).
T1 construct: CYP3A4 in human liver microsome; tissue Corning Gentest; host or cells: human liver microsomes
The data set can be described thus: Inhibition of midazolam metabolite site of CYP3A4 in human liver microsome. It is filed as in vitro ADME. The method, then:
The effect of the compound represented by formula (I) on the enzyme activity of midazolam metabolite site of CYP3A4 in human liver microsome was determined by the following experimental method:
(§1) 100 mM PBS buffer was formulated, which was then used to formulate 2.5 mg/mL microsome solution and 5 mM NADPH solution. The 5× concentration of the compound working solution was diluted with PBS gradient (150, 50, 15, 5, 1.5, 0.15, 0.015, 0 μM). The 5× concentration of ketoconazole working solution was diluted with PBS gradient (150, 50, 15, 5, 1.5, 0.15, 0.015, 0 μM). […] working solution was diluted with PBS to a concentration of 50 μM.
20 μL of the 2.5 mg/mL microsome solution, […], 20 μL of MgCl2 solution and 20 μL of the compound working solution (150, 50, 15, 5, 1.5, 0.15, 0.015, 0 μM, different reaction systems for each concentration) were taken respectively and mixed well. For the positive control group, the compound was replaced with the same concentration of ketoconazole. The mixture together with the 5 mM NADPH solution was pre-incubated at 37° C. for 5 minutes. After 5 minutes, 20 μL of NADPH was added to each well, the reaction was started and incubated for 30 minutes. […] 80 μL of the supernatant was taken and analyzed by LC-MS/MS.
The data was calculated by Graphpad Prism to obtain the IC50 value of the compound on the midazolam metabolite site of CYP3A4.

The target in data set [4] is T1, CYP3A4. Description: Inhibition of testosterone metabolite site of CYP3A4 in human liver microsome. It is filed as in vitro ADME. The procedure: The effect of the compound represented by formula (I) on the enzyme activity of testosterone metabolite site of CYP3A4 in human liver microsome was determined by the following experimental method:
as §1
20 μL of the 2.5 mg/mL microsome solution, 20 μL of the 50 μM […] working solution, 20 μL of MgCl2 solution and 20 μL of the compound working solution (150, 50, 15, 5, 1.5, 0.15, 0.015, 0 μM, different reaction systems for each concentration) were taken respectively and mixed well. For the positive control group, the compound was replaced with the same concentration of ketoconazole. The mixture together with the 5 mM NADPH solution was pre-incubated at 37° C. for 5 minutes. […] 80 μL of the supernatant was taken and analyzed by LC-MS/MS.
The data was calculated by Graphpad Prism to obtain the IC50 value of the compound on the testosterone metabolite site of CYP3A4.

Like-named read-outs stand apart in the source and are kept apart here.

T1 sequence (P08684 whole entry): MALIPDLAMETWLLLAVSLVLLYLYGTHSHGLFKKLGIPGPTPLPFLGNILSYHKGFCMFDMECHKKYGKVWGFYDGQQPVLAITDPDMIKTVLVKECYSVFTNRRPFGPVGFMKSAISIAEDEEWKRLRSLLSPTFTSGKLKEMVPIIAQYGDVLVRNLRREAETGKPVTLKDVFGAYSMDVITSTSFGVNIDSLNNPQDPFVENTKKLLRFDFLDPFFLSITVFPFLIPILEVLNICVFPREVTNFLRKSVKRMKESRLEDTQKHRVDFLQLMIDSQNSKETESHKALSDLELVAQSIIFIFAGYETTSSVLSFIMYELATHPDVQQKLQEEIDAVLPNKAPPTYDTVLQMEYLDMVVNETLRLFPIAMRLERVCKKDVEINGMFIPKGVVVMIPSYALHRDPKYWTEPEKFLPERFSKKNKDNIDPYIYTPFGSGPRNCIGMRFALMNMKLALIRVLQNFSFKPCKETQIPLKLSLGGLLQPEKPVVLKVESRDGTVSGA

With `CCCCOc1nc(N)c2cnn(Cc3ccc(CN4CCCC4)cc3)c2n1` [compound represented by formula (I), 6-Butoxy-1-(4-(pyrrolidin-1-ylmethyl)benzyl)-1H-pyrazolo[3,4-d]pyrimidin-4-amine], the solubility amounted to 1090 µg/mL in data set [1] (FaSSIF solution, fassif, read-out: FasSIF Solubility) and 30 µg/mL in data set [1] (PBS 7.4, pH 7.4, aqueous buffer, read-out: PBS 7.4 Solubility). The “Log D” value in “Log D” was determined as 1.21. The “MEC (minimal effective concentration), IFN-α secretion from PBMC” value in data set [2] came out at 6 nM. Also, the “inhibitory effect on midazolam metabolic site of CYP3A4 (in words)” value on CYP3A4 [3] was “no inhibitory effect”. The IC50 is 14 µM on CYP3A4 [3] (midazolam probe) and 4 µM at CYP3A4 [4] (testosterone probe). Besides, the “inhibitory effect on testosterone metabolite site of CYP3A4 (in words)” value on CYP3A4 [4] is “weak inhibitory effect”.
